How the values were obtained:
[1] = system: human multiple myeloma cell line (NCI-H929); test: In vitro cell growth inhibition assay (WST-1) with isobologram analysis of combination effect; assay type: cell-based; details: combined with the test compound (hydrochloride of Compound 22), 72 hours, isobologram method
Method: (§1) Measurement of the cell growth inhibition rate of the test compound and a combined compound on a human multiple myeloma cell line (NCI-H929), a human non-small-cell lung cancer cell line (PC-9), a human breast cancer cell line (BT-474), a human renal cancer cell line (VMRC-RCZ), a human chronic myeloid leukemia cell line (K-562) and a human acute myeloid leukemia cell line (MOLM-13) was carried out in the following manner.
(§2) For the culture of NCI-H929, Roswell Park Memorial Institute's Medium (RPMI) 1640 medium (Invitrogen) containing 10% fetal calf serum (FCS, Invitrogen), 10 mmol/L HEPES (Invitrogen), 1 mmol/L sodium pyruvate (Invitrogen), 4.5 g/L glucose (Sigma-Aldrich) and 50 μmol/L 2-mercaptoethanol (Invitrogen) was used. For the culture of PC-9, RPMI1640 medium containing 10% FCS was used. For the culture of BT-474, Dulbecco's Modified Eagle Medium (DMEM) (Invitrogen) containing 10% FCS, 1 mmol/L sodium pyruvate, 1.2 mmol/L oxalacetic acid (Sigma-Aldrich), 0.01 mg/mL insulin (Sigma-Aldrich), 10% NCTC-135 medium (Sigma-Aldrich), 4 mmol/L L-glutamine (Invitrogen), 1.5 g/L sodium hydrogencarbonate (Invitrogen) and 4.5 g/L glucose was used.
(§3) NCI-H929 cells were suspended to 12.5×10^4 cells/mL with culture medium (PC-9, 0.625×10^4 cells/mL; BT-474, 12.5×10^4 cells/mL; VMRC-RCZ, 2.5×10^4 cells/mL; MOLM-13, 12.5×10^4 cells/mL; K-562, 6.25×10^4 cells/mL), and the cell suspensions were seeded to the wells of 96-well U-bottom plates (Nalge Nunc International) in an amount of 80 μL/well, followed by incubation in a 5% CO2 incubator at 37° C. for 5 hours (PC-9, BT-474 and VMRC-RCZ, 24 hours; MOLM-13 and K-562, 4 hours).
(§4) The solutions of the test compound and the combined compound diluted with culture medium were added to the plates in an amount of 10 μL/well, respectively, followed by further incubation in a 5% CO2 incubator at 37° C. for 72 hours. WST-1 reagent {4-[3-(4-iodophenyl)-2-(4-nitrophenyl)-2H-5-tetrazolio]-1,3-benzene disulfonate sodium salt} (Roche Diagnostics) was added to the wells in an amount of 10 μL/well and the plates were incubated in a CO2 incubator for 2 hours at 37° C. The absorbance at 450 nm (control wavelength: 655 nm) was measured using a microplate spectrophotometer SPECTRA max 340PC (Molecular Devices). Separately, the solvent used for preparation of each compound solution alone was added to the wells, and the absorbance was measured in the same manner as above after 72-hour incubation carried out in the same manner as above and also immediately after the addition of the solvent. The cell growth inhibition rate on the cells in the compound-added groups (groups treated with the test compound alone, the combined compound alone, or both compounds) was calculated according to the following equation.
(§5) The combined effect was analyzed using the isobologram method [International Journal of Radiation Oncology, Biology, Physics, Vol. 5, p. 85 (1979)]. Judgment of the efficacy of combination therapy was carried out according to the method described in International Journal of Radiation Oncology, Biology, Physics, Vol. 5, p. 85 (1979), Ibid., Vol. 5, p. 1145 (1979), etc.

[2] = system: human multiple myeloma NCI-H929 cells; test: Antitumor effect in a mouse model transplanted with human multiple myeloma NCI-H929 cells (combination with bortezomib); assay type: in vivo, Fox C.B-17/Icr-scidJcl mice; details: day 14; test compound 50 mg/kg i.v. and bortezomib 1 mg/kg i.v., once a day on days 0, 3, 7 and 10
Method: On the day before the transplantation of cancer cells, 0.3 mg/mouse of an anti-asialo GM1 antibody (ca. 10 mg protein/1 mL vial) (Wako Pure Chemical Industries, Ltd.) was intraperitoneally administered to Fox C.B-17/Icr-scidJcl mice (Clea Japan, Inc.). NCI-H929 cells were cultured in RPMI1640 medium containing 10% fetal calf serum (FCS) in a 5% CO2 incubator at 37° C. and then transplanted into the abdominal subcutaneous tissue of the mice in an amount of 1×10^7 cells/mouse. Ten days after the transplantation, the longer diameter and shorter diameter of the tumor subcutaneously grown were measured with slide calipers, and the tumor volume was calculated according to the following equation.
(§7) At the same time, the body weight of each mouse was measured, and the mice were divided into the following groups of 5 mice each so that the mean tumor volume and the mean body weight become uniform. The day was defined as day 0 of the administration test, and administration was started.
The test compound was dissolved in physiological saline (Otsuka Pharmaceutical Co., Ltd.) at a concentration of 5 mg/mL and intravenously administered from the caudal vein in a dose of 0.01 mL/g body weight of mouse (50 mg/kg) once a day on days 0, 3, 7 and 10. […]

[3] = system: human multiple myeloma NCI-H929 cells; test: Antitumor effect in a mouse model transplanted with human multiple myeloma NCI-H929 cells (combination with melphalan); assay type: in vivo, Fox C.B-17/Icr-scidJcl mice; details: day 14; test compound 50 mg/kg i.v. on days 0, 3, 7 and 10; melphalan 4 mg/kg i.v. on day 0
Method: On the day before the transplantation of cancer cells, 0.3 mg/mouse of an anti-asialo GM1 antibody (ca. 10 mg protein/1 mL vial) (Wako Pure Chemical Industries, Ltd.) was intraperitoneally administered to Fox C.B-17/Icr-scidJcl mice (Clea Japan, Inc.). NCI-H929 cells were cultured in RPMI1640 medium containing 10% fetal calf serum (FCS) in a 5% CO2 incubator at 37° C. and then transplanted into the abdominal subcutaneous tissue of the mice in an amount of 1×10^7 cells/mouse.
The day was defined as day 0 of the administration test, and administration was started.
The test compound was dissolved in physiological saline (Otsuka Pharmaceutical Co., Ltd.) at a concentration of 5 mg/mL and intravenously administered from the caudal vein in a dose of 0.01 mL/g body weight of mouse (50 mg/kg) once a day on days 0, 3, 7 and 10.
Melphalan was suspended in physiological saline (Otsuka Pharmaceutical Co., Ltd.) at a concentration of 0.4 mg/mL and intravenously administered from the caudal vein in a dose of 0.01 mL/g body weight of mouse (4 mg/kg) once a day on day 0. • A. Negative control group (Control): neither test compound nor melphalan administered • B. Test compound alone group: 50 mg/kg (once a day/administered on days 0, 3, 7 and 10) • C. […]
On and after day 0, the tumor volume was measured twice a week. […]

[4] = system: human non-small-cell lung cancer cell line (PC-9); test: In vitro cell growth inhibition assay (WST-1) with isobologram analysis of combination effect; assay type: cell-based; details: combined with the test compound (hydrochloride of Compound 22), 72 hours, isobologram method
Method: as §1, §2, §3, §4, §5

[5] = system: human breast cancer cell line (BT-474); test: as above; assay type: cell-based; details: combined with the test compound (hydrochloride of Compound 22), 72 hours, isobologram method
Method: as §1, §3
The solutions of the test compound and the combined compound diluted with culture medium were added to the plates in an amount of 10 μL/well, respectively, followed by further incubation in a 5% CO2 incubator at 37° C. for 72 hours. WST-1 reagent {4-[3-(4-iodophenyl)-2-(4-nitrophenyl)-2H-5-tetrazolio]-1,3-benzene disulfonate sodium salt} (Roche Diagnostics) was added to the wells in an amount of 10 μL/well and the plates were incubated in a CO2 incubator for 2 hours at 37° C.

[6] = system: human acute myeloid leukemia cell line (MOLM-13); test: as above; assay type: cell-based; details: combined with the test compound (hydrochloride of Compound 22), 72 hours, isobologram method
Method: as §1
(§6) For the culture of VMRC-RCZ, Minimum Essential Medium (MEM) (Invitrogen) containing 10% FCS, 0.1 mmol/L Non-Essential Amino Acids (NEAA, Invitrogen), 4 mmol/L HEPES, 2 mmol/L L-glutamine and 1.5 g/L sodium hydrogencarbonate was used. For the culture of K-562, Iscove's Modified Dulbecco's Medium (IMDM) (Invitrogen) containing 10% FCS was used. For the culture of MOLM-13, RPMI1640 medium containing 10% FCS was used.
as §3, with “hours). […]” for “hours).”

[7] = system: human renal cancer cell line (VMRC-RCZ); test: as above; assay type: cell-based; details: combined with the test compound (hydrochloride of Compound 22), 72 hours, isobologram method
Method: as §1
For the culture of VMRC-RCZ, Minimum Essential Medium (MEM) (Invitrogen) containing 10% FCS, 0.1 mmol/L Non-Essential Amino Acids (NEAA, Invitrogen), 4 mmol/L HEPES, 2 mmol/L L-glutamine and 1.5 g/L sodium hydrogencarbonate was used. […]
The solutions of the test compound and the combined compound diluted with culture medium were added to the plates in an amount of 10 μL/well, respectively, followed by further incubation in a 5% CO2 incubator at 37° C. for 72 hours. […] The absorbance at 450 nm (control wavelength: 655 nm) was measured using a microplate spectrophotometer SPECTRA max 340PC (Molecular Devices). Separately, the solvent used for preparation of each compound solution alone was added to the wells, and the absorbance was measured in the same manner as above after 72-hour incubation carried out in the same manner as above and also immediately after the addition of the solvent. […]

[8] = system: human lung cancer NCI-H596 cells; test: Antitumor effect in a mouse model transplanted with human lung cancer NCI-H596 cells; assay type: in vivo, BALB/cAJcl-nu mice; details: day 11; test compound 100 mg/kg i.v. twice a day x 5 days; gefitinib 100 mg/kg oral once a day x 5 days
Method: NCI-H596 cells were cultured in RPMI1640 medium containing 10% fetal calf serum (FCS) in a 5% CO2 incubator at 37° C. and then transplanted into the abdominal subcutaneous tissue of BALB/cAJcl-nu mice (Clea Japan, Inc.) in an amount of 1×10^7 cells/mouse. From the mice in which tumor grew, the tumor was excised and the tumor tissue was cut into ca. 8 mm^3 tissue pieces and then transplanted into the abdominal subcutaneous tissue of BALB/cAJcl-nu mice (Clea Japan, Inc.) using a trocar. Seventeen days after the transplantation, the longer diameter and shorter diameter of the subcutaneous tumor were measured with slide calipers, and the tumor volume was calculated according to the following equation.
as §7
(§8) The test compound was dissolved in physiological saline (Otsuka Pharmaceutical Co., Ltd.) at a concentration of 10 mg/mL and intravenously administered from the caudal vein in a dose of 0.01 mL/g body weight of mouse (100 mg/kg) twice a day for consecutive days from day 0 to day 4. […]

[9] = system: human chronic myeloid leukemia cell line (K-562); test: In vitro cell growth inhibition assay (WST-1) with isobologram analysis of combination effect; assay type: cell-based; details: combined with the test compound (hydrochloride of Compound 22), 72 hours, isobologram method
Method: as §1, §6
as §3, with “hours). […]” for “hours).”

[10] = system: human breast cancer KPL-4 cells; test: Antitumor effect in a mouse model transplanted with human breast cancer KPL-4 cells; assay type: in vivo, BALB/cAJcl-nu mice; details: day 10; test compound 100 mg/kg i.v. twice a day x 5 days; paclitaxel 25 mg/kg i.v. days 0 and 3; trastuzumab 50 mg/kg i.v. days 0, 3, 7, 10, 14 and 17
Method: KPL-4 cells were cultured in DMEM containing 10% fetal calf serum (FCS) in a 5% CO2 incubator at 37° C. and then transplanted into the abdominal subcutaneous tissue of BALB/cAJcl-nu mice (Clea Japan, Inc.) in an amount of 1×10^7 cells/mouse. From the mice in which tumor grew, the tumor was excised and the tumor tissue was cut into ca. 8 mm^3 tissue pieces and then transplanted into the abdominal subcutaneous tissue of BALB/cAJcl-nu mice (Clea Japan, Inc.) using a trocar. Eighteen days after the transplantation, the longer diameter and shorter diameter of the subcutaneous tumor were measured with slide calipers, and the tumor volume was calculated according to the following equation.
as §7, §8

## CC(C)C[C@H](NC(=O)[C@H](Cc1ccccc1)NC(=O)c1cnccn1)B(O)O [Bortezomib, bortezomib]
[1]
  Combination effect of test compound and each compound: Envelope of additivity
[2]
  T/C (V/V0 of each group divided by V/V0 of the negative control group): 0.45

## N[C@@H](Cc1ccc(N(CCCl)CCCl)cc1)C(=O)O [Melphalan, melphalan]
[1]
  Combination effect of test compound and each compound: Envelope of additivity
[3]
  T/C (V/V0 of each group divided by V/V0 of the negative control group): 0.63

## C#Cc1cccc(Nc2ncnc3cc(OCCOC)c(OCCOC)cc23)c1 [Erlotinib, erlotinib]
[4]
  Combination effect of test compound and each compound: Sub-additive

## CS(=O)(=O)CCNCc1ccc(-c2ccc3ncnc(Nc4ccc(OCc5cccc(F)c5)c(Cl)c4)c3c2)o1 [Lapatinib, lapatinib]
[5]
  Combination effect of test compound and each compound: Envelope of additivity

## Nc1ccn([C@@H]2O[C@H](CO)[C@@H](O)[C@@H]2O)c(=O)n1 [Cytarabine, cytarabine]
[6]
  Combination effect of test compound and each compound: Envelope of additivity

## CNC(=O)c1cc(Oc2ccc(NC(=O)Nc3ccc(Cl)c(C(F)(F)F)c3)cc2)ccn1 [Sorafenib, sorafenib]
[7]
  Combination effect of test compound and each compound: Supra-additive

## COc1cc2ncnc(Nc3ccc(F)c(Cl)c3)c2cc1OCCCN1CCOCC1 [Gefitinib, gefitinib]
[4]
  Combination effect of test compound and each compound: Envelope of additivity
[8]
  T/C (V/V0 of each group divided by V/V0 of the negative control group): 0.74

## Nc1cccc2c1CN(C1CCC(=O)NC1=O)C2=O (stereo not shown) [Lenalidomide, lenalidomide]
[1]
  Combination effect of test compound and each compound: Envelope of additivity

## Cc1ccc(NC(=O)c2ccc(CN3CCN(C)CC3)cc2)cc1Nc1nccc(-c2cccnc2)n1 [Imatinib, imatinib]
[9]
  Combination effect of test compound and each compound: Sub-additive

## CC(=O)O[C@H]1C(=O)[C@@]2(C)[C@H]([C@H](OC(=O)c3ccccc3)[C@]3(O)C[C@H](OC(=O)[C@H](O)[C@@H](NC(=O)c4ccccc4)c4ccccc4)C(C)=C1C3(C)C)[C@]1(OC(C)=O)CO[C@@H]1C[C@@H]2O [Paclitaxel, paclitaxel]
[4]
  Combination effect of test compound and each compound: Envelope of additivity
[10]
  T/C (V/V0 of each group divided by V/V0 of the negative control group): 0.094

## CC(=O)O[C@@]12CO[C@@H]1C[C@H](O)[C@@]1(C)C(=O)[C@H](O)C3=C(C)[C@@H](OC(=O)[C@H](O)[C@@H](NC(=O)OC(C)(C)C)c4ccccc4)C[C@@](O)([C@@H](OC(=O)c4ccccc4)[C@H]21)C3(C)C [Docetaxel, docetaxel]
[4]
  Combination effect of test compound and each compound: Envelope of additivity

## O=C(CCCCCCC(=O)Nc1ccccc1)NO [Vorinostat, vorinostat]
[1]
  Combination effect of test compound and each compound: Sub-additive

Reference: patent US20100098690A1, “PHARMACEUTICAL COMPOSITION” (KYOWA HAKKO KIRIN CO., LTD., priority 2007, published 2010)
